{"source": "patent US9173871B2", "about": "“Oxazole and thiazole compounds as beta-catenin modulators and uses thereof” (New York University, priority 2008, dated 2015)", "key": {"LNCaP-abl cells [1]": {"system": "LNCaP-abl cells", "assay": "PARP cleavage immunoblot as marker of apoptosis, LNCaP-abl", "type": "cell-based", "conditions": "20 μM, 72 hr"}, "HCT116 cells": {"system": "HCT116 cells", "assay": "Flow cytometry cell cycle analysis of HCT116 cells", "type": "cell-based", "conditions": "HCT116, 16 hrs, FIG. 9", "protocol": "In order to test the inhibitory effect of candidate compounds on the transcription of endogenous Wnt/β-cat target genes in HCT116 cells, lysates were prepared from cells that were either treated with candidate small molecules or DMSO control. […] Cell cycle arrest of compound treated HCT116 cells was further confirmed by the reduced number of phosphorylated Histone3 (PH3) positive cells, when cultured in the presence of candidate compounds (FIG. 10).\nFlow Cytometry analysis was performed on HCT116 cells treated with candidate compounds for 16 hrs per standard protocols. Briefly, compound treated cells were harvested and washed in 1×PBS followed by fixation in 70% Ethanol at 4° C. for 16 hrs. Cells were then washed in 1×PBS and treated with RNAse at 37° C. for 30′. Following extensive washes in 1×PBS, cellular DNA was stained with 500 ug/ml of Propidium Iodide at room temperature for 10′. Cells were washed again in 1×PBS and analysed by flow cytometry on a FACScalibur machine (Beckson Dickinson) at the NYU flow cytometry core facility."}, "AR nascent mRNA": {"system": "AR nascent mRNA", "assay": "Q-PCR of nascent AR mRNA in LNCaP cells", "type": "cell-based", "conditions": "20 μM, four hours, presence or absence of R1881", "protocol": "RNA was extracted, treated with deoxyribonuclease and subjected to cDNA synthesis. Relative levels of nascent AR mRNA were analyzed by Q-PCR using primers flanking exon/exon and exon/intron."}, "[2]": {"system": "ARE-LUC androgen responsive reporter gene in LNCaP", "assay": "AR responsive luciferase reporter (ARE-LUC / LB1-LUC) in LNCaP cells", "type": "cell-based", "protocol": "(§1) LNCaP or LNCaP-abl (ABL) cells were cotransfected with 0.1 μg β-galactosidase and 0.2 μg S37A stabilized β-catenin together with the indicated luciferase reporter constructs; STF16-LUC (β-catenin reporter) and LB1-LUC (AR reporter). […] Luciferase activity was normalized to β-galactosidase expression.\n(§2) To determine the IC50 for the β-catenin/Wnt-responsive reporter, cells were cotransfected with β-galactosidase (LacZ) and a constitutively active S37A stabilized β-catenin mutant construct together with the reporter construct, STF16-LUC. To determine the IC50 for the AR-responsive construct, cells were cotransfected with LacZ and the AR responsive reporter construct, ARE-LUC. […] B) AR overexpression circumvents C3 repression of AR-responsive transcription. LNCaP cells were cotransfected with 0.1 μg LacZ and 0.2 μg of the AR responsive reporter construct, ARE-LUC, together with 0, 0.05, 0.1 and 0.2 μg of an AR expression vector. […] Luciferase activity was normalized to LacZ expression.\n(§3) 108(15): 5954-63], it had not been determined in prostate cancer cells. […] 69(8): 3332-8]."}, "[3]": {"system": "Wnt/β-catenin STF-LUC reporter in LNCaP", "assay": "β-catenin/Wnt-responsive STF16-LUC reporter with S37A β-catenin in LNCaP cells", "type": "cell-based", "protocol": "as §1, §2, §3"}, "HEK 293 cells [4]": {"system": "HEK 293 cells", "assay": "Neutral red uptake growth assay, HEK293", "type": "cell-based", "conditions": "HEK 293, higher levels of C3 (10 or 20 μM daily)", "protocol": "Left panel; HEK293 cells were cultured in DMEM with 10% FBS. […] Neutral red uptake assay was performed at the end of treatment to estimate the number of viable cells."}, "LNCaP cells [5]": {"system": "LNCaP cells", "assay": "Flow cytometry DNA content (propidium iodide), LNCaP", "type": "cell-based", "conditions": "20 μM, 24 hr", "protocol": "(§4) A) Cells were cultured in phenol-red free RPMI with either 5% charcoal-stripped FBS supplemented with 0.1 nM R1881 (LNCaP) or 10% charcoal-stripped FBS alone (LNCaP-abl). […] Neutral red uptake assay was performed at the end of treatment to estimate the number of viable cells. […] Fixed cells were stained with Propidium Iodide and analyzed for DNA content using flow cytometry. The first and the second red peak and the dashed area represent G0/G1, M and S-phase cell population, respectively."}, "LNCaP-abl cells [6]": {"system": "LNCaP-abl cells", "assay": "Proliferation assay (neutral red uptake), LNCaP-abl", "type": "cell-based", "conditions": "20 μM daily", "protocol": "as §4"}, "LNCaP cells [7]": {"system": "LNCaP cells", "assay": "PARP cleavage immunoblot as marker of apoptosis, LNCaP", "type": "cell-based", "conditions": "20 μM, 72 hr"}, "VCaP cells": {"system": "VCaP cells", "assay": "Growth of VCaP cells", "type": "cell-based", "conditions": "20 μM daily"}, "HEK 293 cells [8]": {"system": "HEK 293 cells", "assay": "PARP cleavage immunoblot, HEK293", "type": "cell-based", "conditions": "HEK 293, 20 μM, 72 hr"}, "membrane bound β-catenin": {"system": "membrane bound β-catenin", "assay": "Immunofluorescence of membrane β-catenin in androgen-deprived LNCaP cells", "type": "cell-based", "from_the_text": "An important objective in the initial screen for inhibitors of β-catenin responsive transcription (iCRT) was to isolate compounds that diminished the nuclear function of β-catenin without affecting β-catenin interaction with E-cadherin at the cell membrane."}, "[9]": {"system": "Wnt/β-catenin STF-LUC reporter in LNCaP-abl cells", "assay": "β-catenin/Wnt-responsive STF16-LUC reporter with S37A β-catenin in LNCaP-abl cells", "type": "cell-based", "protocol": "as §1, §2, §3"}, "[10]": {"biological_target": "Wnt/wg pathway, Wnt-responsive luciferase reporter dTF12", "conditions": "Gonsalves et al., PNAS 2011; read-out: IC50, β-catenin-responsive luciferase reporter (dTF12); cited from earlier work"}, "[11]": {"system": "ARE-LUC androgen responsive reporter gene in LNCaP-abl", "assay": "AR responsive luciferase reporter (ARE-LUC / LB1-LUC) in LNCaP-abl cells", "type": "cell-based", "protocol": "as §1, §2, §3"}, "[12]": {"assay": "Toxicity / maximum tolerated dose in mice", "type": "in vivo", "protocol": "Importantly, given the role of the Wnt/β-catenin pathway as a regulator of intestinal stem cells [Korinek et al., Nat Genet, 1998. 19(4): 379-83; van de Wetering et al., Cell, 2002. […] Accordingly, mice were injected 5 days/week for 5 weeks at a range of concentrations between 50-125 mg/Kg and compared to vehicle-alone control. Toxicity was monitored by assessing mouse weight, blood counts and mortality. The MTD determination was performed at the fee-for-service, anti-tumor assessment facility at Memorial Sloan Kettering Cancer Center."}, "LNCaP-abl cells [13]": {"system": "LNCaP-abl cells", "assay": "Flow cytometry DNA content (propidium iodide), LNCaP-abl", "type": "cell-based", "conditions": "20 μM, 24 hr", "protocol": "as §4"}, "[14]": {"system": "AR, PSA, c-myc, CDK1, UBE2C protein in LNCaP cells", "assay": "Western blot time course of AR and β-catenin target proteins in LNCaP cells", "type": "cell-based", "protocol": "ABL cells were treated similarly, but cultured in 5% charcoal-stripped phenol-red free RPMI. The mRNA was extracted at each time point and relative levels of indicated genes were analyzed by Q-PCR and normalized to RPL19. B) Protein from LNCaP cells was analyzed at each time point and immunoblotted with indicated antibodies.\nExpression of tubulin (included as an internal loading control) and β-catenin were unaffected."}, "[15]": {"conditions": "75 mg/Kg injected 5 days a week for 5 weeks"}}, "data": [{"smiles": "CCc1ccc(-c2nc(CSCC(=O)NCCc3ccccc3)c(C)o2)cc1", "note": "[Compound C3]", "values": [{"measurement": "PARP cleavage (apoptosis marker)", "setting": "LNCaP-abl cells [1]", "value": "Increased levels of PARP cleavage"}, {"measurement": "cell cycle effect", "setting": "HCT116 cells", "value": "G0/G1 arrest"}, {"measurement": "levels of newly synthesized AR mRNA", "setting": "AR nascent mRNA", "value": "diminishes"}, {"measurement": "IC50", "setting": "[2]; LNCaP (first of two values)", "value": 1440, "unit": "nM"}, {"measurement": "AR reporter gene activity (LB1-LUC)", "setting": "[2]; LNCaP, 20 uM, 24 hr", "value": "inhibits"}, {"measurement": "IC50", "setting": "[3]", "value": 140, "unit": "nM"}, {"measurement": "Wnt reporter gene activity (STF16-LUC)", "setting": "[3]; 20 uM, 24 hr", "value": "inhibits"}, {"measurement": "293 cell growth", "setting": "HEK 293 cells [4]", "value": "somewhat slow"}, {"measurement": "cell cycle effect by flow cytometry", "setting": "LNCaP cells [5]", "value": "growth arrest of the cells in the G0/G1 phase"}, {"measurement": "cell growth", "setting": "LNCaP-abl cells [6]", "value": "completely abolished"}, {"measurement": "PARP cleavage (apoptosis marker)", "setting": "LNCaP cells [7]", "value": "Increased levels of PARP cleavage"}, {"measurement": "cell growth", "setting": "VCaP cells", "value": "completely abolished"}, {"measurement": "apoptosis (PARP cleavage) in 293 cells", "setting": "HEK 293 cells [8]", "value": "does not induce apoptosis"}, {"measurement": "ability of β-catenin to interact with E-cadherin at the cell membrane", "setting": "membrane bound β-catenin", "value": "does not affect"}, {"measurement": "IC50", "setting": "[9]", "value": 890, "unit": "nM"}, {"measurement": "Wnt reporter gene activity (STF16-LUC)", "setting": "[9]; 20 uM, 24 hr", "value": "inhibits"}, {"measurement": "IC50", "setting": "[10]", "value": 8.2, "unit": "nM"}, {"measurement": "IC50", "setting": "[11]; LNCaP-abl (second of two values)", "value": 1610, "unit": "nM"}, {"measurement": "AR reporter gene activity (LB1-LUC)", "setting": "[11]; LNCaP-abl, 20 uM, 24 hr", "value": "inhibits"}, {"measurement": "body weight", "setting": "[12]; [15]", "value": "did not lose weight"}, {"measurement": "gut toxicity", "setting": "[12]; [15]", "value": "no gut toxicity"}, {"measurement": "histology of all major organs", "setting": "[12]; [15]", "value": "normal"}, {"measurement": "toxicity (overall)", "setting": "[12]; [15]", "value": "not toxic"}, {"measurement": "toxicity", "setting": "[12]; continuous injection of 20 mg/Kg by mini-pump for 5 weeks", "value": "no toxicity"}, {"measurement": "cell cycle effect by flow cytometry", "setting": "LNCaP-abl cells [13]", "value": "growth arrest of the cells in the G0/G1 phase"}, {"measurement": "expression of tubulin and β-catenin protein", "setting": "[14]", "value": "unaffected"}, {"measurement": "levels of AR, PSA, c-myc, CDK1 and UBE2C protein", "setting": "[14]; especially at 48-hour time point", "value": "diminished levels"}]}]}
